In US20260107941A1:
≈ marks a conversion by molar mass, not a printed value. Where “and” joins values, the source holds several entries; their conditions need not be identical. Identical values can stand only once.

Experiments:
[1] = test system: Pseudomonas syringae pv. lachrymans; test: microbe, parasite or virus in culture; assay type: cell-based; details: P. syringae pv. lachrymans
[2] = test system: Cladosporium fulvum; test: Mycelial growth rate method, toxicity to Cladosporium fulvum; assay type: cell-based; details: Fulvia fulva; C. fulvum; mycelial growth on drug-containing PDA plate, 28° C., 3 d to 7 d
Protocol: (§1) A PDA solid medium was heated, melted, shaken, and cooled to about 45° C.; a medicinal solution (filtered with a 0.22 μm sterile filter) and the PDA solid medium were mixed, cooled to obtain a drug-containing medium plate with a certain concentration; a phytopathogen cake was placed in the center of the plate, and cultured at 28° C. for 3 d to 7 d; when the hyphae of the phytopathogen in the control group were about to fill the dish, a colony diameter was measured using a cross method, and the mycelial growth inhibition rate and toxicity were calculated. [formula]

[3] = test system: Erwinia amylovory; test: Turbidity method, toxicity to Erwinia amylovory; assay type: cell-based; details: E. amylovory, turbidity in NB medium, shaking culture 30° C., 2 d to 3 d
[4] = test system: Rhizoctonia solani; test: Mycelial growth rate method, toxicity to Rhizoctonia solani; assay type: cell-based; details: R. solani, mycelial growth on drug-containing PDA plate, 28° C., 3 d to 7 d
Protocol: as §1

[5] = test system: Colletotrichum orbiculare; test: Mycelial growth rate method, toxicity to Colletotrichum orbiculare; assay type: cell-based; details: C. orbiculare, mycelial growth on drug-containing PDA plate, 28° C., 3 d to 7 d
Protocol: as §1

[6] = test system: pear fire blight; test: Field test, control effect on pear fire blight in fragrant pear orchards; details: 3 L sprayed per pear tree, 3 times at 7 d/time
[7] = test system: Rhizoctonia solani; test: Pot method, control effect on Rhizoctonia solani in cotton seedlings; assay type: in vivo; details: 50 mL applied on 1 d, 3 d, 5 d, 7 d, after 10 d
Protocol: A Rhizoctonia solani suspension (10^7 CFU/mL) was added to a matrix at a ratio of 20:1 (w/w), mixed well, germinated cotton seeds were sown into the matrix, and then 50 mL of the medicinal solution was applied on 1 d, 3 d, 5 d, and 7 d separately. After culturing for 10 d, the incidence rate was investigated and the control effect was calculated.

[8] = test system: Fusarium oxysporum; test: Mycelial growth rate method, toxicity to Fusarium oxysporum; assay type: cell-based; details: F. oxysporum, mycelial growth on drug-containing PDA plate, 28° C., 3 d to 7 d
Protocol: as §1

[9] = test system: Alternaria alternata; test: Mycelial growth rate method, toxicity to Alternaria alternata; assay type: cell-based; details: A. alternata, mycelial growth on drug-containing PDA plate, 28° C., 3 d to 7 d
Protocol: as §1

[10] = test system: Acidovorax citrulli; test: Turbidity method, toxicity to Acidovorax citrulli; assay type: cell-based; details: Paracidovorax citrulli; A. citrulli; turbidity in NB medium, shaking culture 30° C., 2 d to 3 d
[11] = test system: Xanthomonas oryzae; test: microbe, parasite or virus in culture; assay type: cell-based

CCN(CC)c1ccc(C=O)c(O)c1
EC50 [1]: 114 µg/mL (≈ 592 µM) | EC50 [2]: 113 µg/mL (≈ 583 µM) | EC50 [3]: 92.1 µg/mL (≈ 477 µM) | EC50 [4]: 14.5 µg/mL (≈ 75 µM) | EC50 [5]: 93.8 µg/mL (≈ 485 µM) | Control effect (%) 7 d after last dose ([6]; 200 mg/L): 40.85c % | Control effect (%) 14 d after last dose ([6]; 200 mg/L): 35.14c % | Control effect (%) 7 d after last dose ([6]; 300 mg/L): 50.37% and 50.37b % | Control effect (%) 14 d after last dose ([6]; 300 mg/L): 44.71% and 44.71b % | Control effect (%) 7 d after last dose ([6]; 400 mg/L): 58.13% and 58.13a % | Control effect (%) 14 d after last dose ([6]; 400 mg/L): 50.81% and 50.81a % | Control effect (%) ([7]; 50 mg/L): 60.66% and 60.66c % | Incidence (%) ([7]; 50 mg/L): 20.00% | Control effect (%) ([7]; 100 mg/L): 77.05% and 77.05b % | Incidence (%) ([7]; 100 mg/L): 11.67% | Control effect (%) ([7]; 150 mg/L): 86.89% and 86.89a % | Incidence (%) ([7]; 150 mg/L): 6.67% | EC50 [8]: 40.8 µg/mL (≈ 211 µM) | EC50 [9]: 200 µg/mL (≈ 1040 µM) | EC50 [10]: 108 µg/mL (≈ 561 µM) | EC50 [11]: 136 µg/mL (≈ 706 µM)

COC(=O)Nc1nc2ccccc2[nH]1 [carbendazim, reference compound]
Control effect (%) ([7]; 100 mg/L): 49.18d % | Incidence (%) ([7]; 100 mg/L): 25.83%

zhongshengmycin [reference compound]
Control effect (%) 7 d after last dose ([6]; 50 mg/L): 53.06ab % | Control effect (%) 14 d after last dose ([6]; 50 mg/L): 47.36b %
